Source: patent publication US20250214977A1, “STAT6 INHIBITORS AND USES THEREOF” (Kymera Therapeutics, Inc., priority 2024, published 2025)

Test system: Phosphorylation of STAT6 in human PBMC (CD19+ B cells)
Assay: Phosphorylated STAT6 (pSTAT6) flow cytometry assay in human PBMC, IL-4 stimulated
Assay type: cell-based
Details: compound 1 hour, 1 ng/ml IL-4 for 15 minutes, read-out: STAT6 IL4 pSTAT6 assay in PBMC: Average IC50
Summary of the method: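 Human PBMC preincubated 1 h at 37 °C with compound (9-point 1:3 series, top up to 30 μM), then stimulated with 1 ng/ml IL-4 for 15 min. After fixation, methanol permeabilization and staining, pSTAT6 quantified in CD19+ B cells by flow cytometry; four-parameter fit of inhibition.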

| SMILES | IC50 |
| --- | --- |
| CN(C)C(=O)c1nc2ccc(C3=CCCN(C(=O)CCn4ccnn4)C3)cc2s1 [Example I-227] | 10 to 100 µM |
| CN(C)C(=O)c1cc2cc(C3=CCCN(C(=O)CCc4ncccn4)C3)ccc2o1 [Example I-231] | > 100 µM |
| CC(=O)N1Cc2ccccc2CC1C(=O)N1CCC=C(c2ccc3oc(C(=O)N(C)C)cc3c2)C1 (centres unmarked) [Example I-232] | > 100 µM |
| CN(C)C(=O)c1nc2cc(C3=CCCN(C(=O)CCn4ccnn4)C3)ccc2[nH]1 [Example I-234] | > 100 µM |
| CCCN(C)C(=O)c1cc2cc(C3=CCCN(C(=O)CCn4ccnn4)C3)ccc2o1 [Example I-235] | > 100 µM |
| CNC(=O)c1cc2cc(C3=CCCN(C(=O)CCn4ccnn4)C3)ccc2o1 [Example I-236] | > 100 µM |
| CN(C)C(=O)c1cc2cc(C3=CCCN(C(=O)CCc4nc5ccccc5s4)C3)ccc2o1 [Example I-237] | > 100 µM |
| CN(C)C(=O)c1cc2cc(C3=CCCN(C(=O)[C@H]4Cc5ccc(O)cc5CN4)C3)ccc2o1 [Example I-239] | > 100 µM |
| CN(C)C(=O)c1cn2cc(C3=CCCN(C(=O)CCn4ccnn4)C3)ccc2n1 [Example I-241] | > 100 µM |
| CN(C)C(=O)c1cc2cc(C3=CCCN(C(=O)CCn4ccnn4)C3)ccc2s1 [Example I-243] | > 100 µM |
| CN(C)C(=O)c1cc2cc(C3=CCCN(C(=O)CCn4ccnn4)C3)cnc2s1 [Example I-244] | > 100 µM |
| CN(C)C(=O)c1cc2cc(C3=CCCN(C(=O)Cc4nc5ccccc5[nH]4)C3)ccc2o1 [Example I-245] | > 100 µM |
| CN(C)C(=O)c1cc2cc(C3=CCCN(C(=O)Cc4cnccn4)C3)ccc2o1 [Example I-246] | > 100 µM |
| CN(C)C(=O)c1cc2cc(C3=CCCN(C(=O)Cc4ncccn4)C3)ccc2o1 [Example I-249] | > 100 µM |
| CN(C)C(=O)c1cc2cc(C3=CCCN(C(=O)CCc4cn5ccccc5n4)C3)ccc2o1 [Example I-251] | > 100 µM |
| CC(=O)NCc1ccc(CC(=O)N2CCC=C(c3ccc4oc(C(=O)N(C)C)cc4c3)C2)cc1 [Example I-252] | > 100 µM |
| CN(C)C(=O)c1cc2cc(C3=CCCN(C(=O)Cn4nnc5ccccc54)C3)ccc2o1 [Example I-254] | > 100 µM |
| CN(C)C(=O)c1cc2cc(C3=CCCN(C(=O)CC4CCOCC4)C3)ccc2o1 [Example I-255] | > 100 µM |
| COc1ccc(CC(=O)N2CCC=C(c3ccc4oc(C(=O)N(C)C)cc4c3)C2)cc1C#N [Example I-256] | > 100 µM |
| CN(C)C(=O)c1cc2ccc(C3=CCCN(C(=O)Cc4cccnc4O)C3)cc2[nH]1 [Example I-257] | > 100 µM |
| CN(C)C(=O)c1cc2cc(C3=CCCN(C(=O)Cc4ccc5c(c4)CN(C(=O)OC(C)(C)C)CC5)C3)ccc2o1 [Example I-259] | > 100 µM |
| CN(C)C(=O)c1cc2cc(C3=CCCN(C(=O)Cn4cccn4)C3)ccc2o1 [Example I-261] | > 100 µM |
| CN(C)C(=O)c1cc2cc(C3=CCCN(C(=O)Cc4ccccn4)C3)ccc2o1 [Example I-263] | > 100 µM |
| CN(C)C(=O)c1cc2cc(C3=CCCN(C(=O)CCn4ccc5ccccc54)C3)ccc2o1 [Example I-264] | > 100 µM |
| CN(C)C(=O)c1cc2cc(C3=CCCN(C(=O)CCn4cnc5ccccc54)C3)ccc2o1 [Example I-265] | > 100 µM |
| CN(C)C(=O)c1cc2cc(C3=CCCN(C(=O)CCc4ccc5ccccc5c4)C3)ccc2o1 [Example I-266] | > 100 µM |

| SMILES | IC50 |
| --- | --- |
| CN(C)C(=O)c1cc2cc(C3=CCCN(C(=O)CCc4nc5ccccc5[nH]4)C3)ccc2o1 [Example I-267] | > 100 µM |
| CN(C)C(=O)c1cc2cc(C3=CCCN(C(=O)CCc4ccccn4)C3)ccc2o1 [Example I-268] | > 100 µM |
| CN(C)C(=O)c1cc2ccc(C3=CCCN(C(=O)CCn4ccnn4)C3)cc2s1 [Example I-269] | 10 to 100 µM |
| CN(C)C(=O)c1cc2cc(C3=CCCN(C(=O)Cc4ccncn4)C3)ccc2o1 [Example I-270] | > 100 µM |
| CN(C)C(=O)c1cc2cc(C3=CCCN(C(=O)Cc4coc5ccccc45)C3)ccc2o1 [Example I-271] | > 100 µM |
| CN(C)C(=O)c1cc2cc(C3=CCCN(C(=O)CCc4cncnc4)C3)ccc2o1 [Example I-272] | > 100 µM |
| CN(C)C(=O)c1cc2cc(C3=CCCN(C(=O)Cc4ccc5ncccc5c4)C3)ccc2o1 [Example I-273] | > 100 µM |
| CN(C)C(=O)c1cc2cc(C3=CCCN(C(=O)Cn4ccc5ccccc54)C3)ccc2o1 [Example I-274] | > 100 µM |
| CN(C)C(=O)c1cc2cc(C3=CCCN(C(=O)Cc4cccnc4)C3)ccc2o1 [Example I-275] | > 100 µM |
| CN(C)C(=O)c1cc2cc(C3=CCCN(C(=O)Cc4cnc5ccccn45)C3)ccc2o1 [Example I-276] | > 100 µM |
| O=C(CCn1ccnn1)N1CCC=C(c2c[nH]c3cc(-n4ccccc4=O)ccc23)C1 [Example I-277] | > 100 µM |
| O=C(CCn1ccnn1)N1CCC=C(c2ccc3occc3c2)C1 [Example I-278] | > 100 µM |
| CN(C)C(=O)c1cc2cc(C3=CCCN(C(=O)Cc4ccncc4)C3)ccc2o1 [Example I-279] | > 100 µM |
| CN(C)C(=O)c1cc2cc(C3=CCCN(C(=O)CCc4ccc5c(c4)OCCO5)C3)ccc2o1 [Example I-280] | > 100 µM |
| CN(C)C(=O)c1cc2cc(C3=CCCN(C(=O)CCc4cn5cccnc5n4)C3)ccc2o1 [Example I-281] | > 100 µM |
| CN(C)C(=O)c1cc2cc(C3=CCCN(C(=O)CCc4ccc5c(c4)OCO5)C3)ccc2o1 [Example I-282] | > 100 µM |
| CN(C)C(=O)c1cc2cc(C3=CCCN(C(=O)Cc4ccccc4)C3)ccc2o1 [Example I-283] | > 100 µM |
| CN(C)C(=O)c1cc2cc(C3=CCCN(C(=O)Cn4ncc5ccccc54)C3)ccc2o1 [Example I-284] | > 100 µM |
| CN(C)C(=O)c1cc2cc(C3=CCCN(C(=O)C4Cc5ccccc5CN4C)C3)ccc2o1 (centres unmarked) [Example I-285] | > 100 µM |
| CN(C)C(=O)c1cc2cc(C3=CCCN(C(=O)Cc4ccc5ncnn5c4)C3)ccc2o1 [Example I-286] | > 100 µM |
| CC(=O)Nc1ccc(CC(=O)N2CCC=C(c3ccc4oc(C(=O)N(C)C)cc4c3)C2)cc1 [Example I-287] | > 100 µM |
| CN(C)C(=O)c1cn2ccc(C3=CCCN(C(=O)CCn4ccnn4)C3)cc2n1 [Example I-289] | > 100 µM |
| CN(C)C(=O)c1cc2cc(C3=CCCN(C(=O)CCc4cccc5ccccc45)C3)ccc2o1 [Example I-291] | > 100 µM |
| CN(C)C(=O)c1cc2cc(C3=CCCN(C(=O)Cc4nc5ccccc5o4)C3)ccc2o1 [Example I-292] | > 100 µM |
| CN(C)C(=O)c1cc2cc(C3=CCCN(C(=O)Cc4cncnc4)C3)ccc2o1 [Example I-293] | > 100 µM |
| CN(C)C(=O)c1cc2cc(C3=CCCN(C(=O)Cc4cccc5ccccc45)C3)ccc2o1 [Example I-294] | > 100 µM |

| SMILES | IC50 |
| --- | --- |
| CN(C)C(=O)c1cc2cc(C3=CCCN(C(=O)Cc4ccc5ccccc5c4)C3)ccc2o1 [Example I-295] | > 100 µM |
| CN(C)C(=O)c1cc2cc(C3=CCCN(C(=O)CN4CCc5ccccc5C4)C3)ccc2o1 [Example I-296] | > 100 µM |
| CN(C)C(=O)c1cc2cc(C3=CCCN(C(=O)Cc4ccc5nccnc5c4)C3)ccc2o1 [Example I-297] | > 100 µM |
| CN(C)C(=O)c1cc2ccc(C3=CCCN(C(=O)CCn4ccnn4)C3)cn2n1 [Example I-298] | > 100 µM |
| CN(C)C(=O)c1cc2cc(C3=CCCN(C(=O)CCc4cccs4)C3)ccc2o1 [Example I-299] | > 100 µM |
| CN(C)C(=O)c1cc2cc(C3=CCCN(C(=O)CCc4c[nH]c5ccccc45)C3)ccc2o1 [Example I-300] | > 100 µM |
| CN(C)C(=O)c1cc2cc(C3=CCCN(C(=O)CCc4cccnc4)C3)ccc2o1 [Example I-301] | > 100 µM |
| CN(C)C(=O)c1cc2cc(C3=CCCN(C(=O)Cc4n[nH]c5ccccc45)C3)ccc2o1 [Example I-302] | > 100 µM |
| CN(C)C(=O)c1cc2ccc(C3=CCCN(C(=O)CCn4ccnn4)C3)c(F)c2[nH]1 [Example I-304] | < 0.1 µM |
| CN(C)C(=O)c1cc2cc(C3CCCN(C(=O)CCn4ccnn4)C3)ccc2o1 (centres unmarked) [Example I-305] | > 100 µM |
| CN(C)C(=O)c1cc2cc(C3=CCCN(C(=O)Cc4ccc5c(c4)OCCO5)C3)ccc2o1 [Example I-306] | > 100 µM |
| O=C(NCCO)c1cc2cc(C3=CCCN(C(=O)CCn4ccnn4)C3)ccc2o1 [Example I-307] | > 100 µM |
| CN(C)C(=O)c1cc2cc(C3=CCCN(C(=O)CCn4ccnn4)C3)ccc2[nH]1 [Example I-308] | > 100 µM |
| CN(C)C(=O)c1cc2cc(C3=CCCN(C(=O)Cc4c[nH]c5ncccc45)C3)ccc2o1 [Example I-309] | > 100 µM |
| CN(C)C(=O)c1cc2cc(C3=CCCN(C(=O)CCn4ccnc4)C3)ccc2o1 [Example I-310] | > 100 µM |
| CN(C)C(=O)c1cc2cc(C3=CCCN(C(=O)Cn4ccnc4)C3)ccc2o1 [Example I-311] | > 100 µM |
| CN(C)C(=O)c1cc2cc(C3=CCCN(C(=O)CCc4ccccc4)C3)ccc2o1 [Example I-312] | > 100 µM |
| CN(C)C(=O)c1cc2cc(C3=CCCN(C(=O)CCc4ccncc4)C3)ccc2o1 [Example I-313] | > 100 µM |
| CN(C)C(=O)c1cc2cc(C3=CCCN(C(=O)Cn4cncn4)C3)ccc2o1 [Example I-315] | > 100 µM |
| CN(C)C(=O)c1cc2ccc(C3=CCCN(C(=O)Cn4ccccc4=O)C3)cc2[nH]1 [Example I-316] | > 100 µM |
| CN(C)C(=O)c1ccc2c(C3=CCCN(C(=O)CCn4ccnn4)C3)c[nH]c2c1 [Example I-317] | > 100 µM |
| Cc1cn(CCC(=O)N2CCC=C(c3ccc4cc(C(=O)N(C)C)[nH]c4c3)C2)nn1 [Example I-319] | > 100 µM |
| CN(C)C(=O)c1cc2ccc(C3=CCCN(C(=O)C4CC4c4ccn(C)n4)C3)cc2[nH]1 (centres unmarked) [Example I-321] | 10 to 100 µM |
| CN(C)C(=O)c1cc2ccc(C3=CCCN(C(=O)C4CC4F)C3)cc2[nH]1 (centres unmarked) [Example I-322] | 10 to 100 µM |
| CN(C)C(=O)c1cc2c(F)c(C3=CCCN(C(=O)CCn4ccnn4)C3)ccc2o1 [Example I-323] | 0.1 to 1 µM |
